Laboratory results: ChEMBL document CHEMBL5523764, “Discovery of NO Donor-Aurovertin Hybrids as Dual Ferroptosis and Apoptosis Inducers for Treating Triple Negative Breast Cancer” (J Med Chem, 2024)
The source made the active and inactive calls. No cut-off for these calls is given here.

Tests used:
[1] = tested on: 4T1; assay: Antiproliferative activity against mouse 4T1 cells assessed as reduction in cell viability incubated for 72 hrs by MTT assay; assay type: functional, cell-based; conditions: 4T1, 72 h
[2] = Cytotoxicity against human MCF-10A cells assessed as reduction in cell viability incubated for 72 hrs by MTT assay; assay type: toxicity, cell-based
[3] = Selectivity index, ratio of IC50 for cytotoxicity against human MCF-10A cells to IC50 for antiproliferative activity against human MDA-MB-231 cells; assay type: toxicity, cell-based; conditions: MCF-10A cells versus MDA-MB-231 cells, read-out: Ratio IC50
[4] = tested on: HCC1937; assay: Antiproliferative activity against human HCC1937 cells assessed as reduction in cell viability incubated for 72 hrs by MTT assay; assay type: functional, cell-based; conditions: HCC1937, 72 h
[5] = tested on: MCF7; assay: Antiproliferative activity against human MCF7 cells assessed as reduction in cell viability incubated for 72 hrs by MTT assay; assay type: functional, cell-based; conditions: MCF7, 72 h
[6] = tested on: MDA-MB-231; assay: Induction of apoptosis in human MDA-MB-231 cells assessed as late apoptotic cells at 0.25 uM by Annexin V-FITC staining based flow cytometric analysis (reference value: 0.02 %); assay type: functional
[7] = tested on: MDA-MB-231; assay: Induction of apoptosis in human MDA-MB-231 cells assessed as necrotic cells at 0.25 uM by Annexin V-FITC staining based flow cytometric analysis (reference value: 7.98 %); assay type: functional
[8] = tested on: MDA-MB-231; assay: Induction of apoptosis in human MDA-MB-231 cells assessed as necrotic cells at 0.5 uM by Annexin V-FITC staining based flow cytometric analysis (reference value: 7.98 %); assay type: functional
[9] = tested on: MDA-MB-231; assay: Induction of apoptosis in human MDA-MB-231 cells assessed as early apoptotic cells at 1 uM by Annexin V-FITC staining based flow cytometric analysis (reference value: 0.17 %); assay type: functional
[10] = tested on: MDA-MB-231; assay: Induction of apoptosis in human MDA-MB-231 cells assessed as late apoptotic cells at 1 uM by Annexin V-FITC staining based flow cytometric analysis (reference value: 0.02 %); assay type: functional
[11] = tested on: MDA-MB-231; assay: Induction of apoptosis in human MDA-MB-231 cells assessed as necrotic cells at 1 uM by Annexin V-FITC staining based flow cytometric analysis (reference value: 7.98 %); assay type: functional
[12] = tested on: MDA-MB-231; assay: Downregulation of caspase-8 expression in human MDA-MB-231 cells at 0.25 to 1 uM by Western blot analysis; assay type: functional, cell-based; conditions: dose 0.25-1 µM
[13] = tested on: Cell membrane; assay: Induction of mitochondrial membrane loss in human MDA-MB-231 cells assessed as increase in ratio of green fluorescence at 0.25 to 1 uM incubated for 24 hrs by JC-1 staining based; assay type: cell membranes; conditions: dose 0.25-1 µM
[14] = tested on: MDA-MB-231; assay: Upregulation of Bid expression in human MDA-MB-231 cells at 0.25 to 1 uM by Western blot analysis; assay type: functional, cell-based; conditions: dose 0.25-1 µM
[15] = tested on: Mitochondria; assay: Induction of ROS accumulation in mitochondria of human MDA-MB-231 cells at 0.25 to 1 uM by MitoSOX probe based flow cytometric analysis; assay type: functional; conditions: dose 0.25-1 µM
[16] = tested on: MDA-MB-231; assay: Induction of ferroptosis in human MDA-MB-231 cells assessed as decrease in GSH/GSSG ratio incubated for 24 hrs by GSH colorimetric assay; assay type: functional, cell-based; conditions: dose 0.25-1 µM
[17] = tested on: MDA-MB-231; assay: Induction of ferroptosis in human MDA-MB-231 cells assessed as decrease in FTH1 expression by Western blot analysis; assay type: functional, cell-based; conditions: dose 0.25-1 µM
[18] = tested on: MDA-MB-231; assay: Antiproliferative activity against human MDA-MB-231 cells assessed as inhibition of cell growth at 0.01 to 100 uM incubated for 72 hrs in presence of Fer-1 by MTT assay; assay type: functional, cell-based; conditions: dose 0.01-100 µM
[19] = tested on: MDA-MB-231; assay: Induction of lipid ROS accumulation in human MDA-MB-231 cells incubated for 24 hrs in presence of Fer-1 by BODIPY-C11 probe based flow cytometric analysis; assay type: functional, cell-based
[20] = Toxicity in nude mouse xenografted with human MDA-MB-231 cells assessed as effect on body weight at 10 to 20 mg/kg, ip administered for 30 days; assay type: organism-based; conditions: in vivo, 720 h, dose 10-20 mg/kg, time 30 day
[21] = tested on: MDA-MB-231; assay: Antitumor activity against human MDA-MB-231 cells xenografted in nude mouse assessed as reduction in tumor volume at 10 to 20 mg/kg, ip administered for 30 days; assay type: functional, organism-based; conditions: dose 10-20 mg/kg, time 30.0 day
[22] = tested on: MDA-MB-231; assay: Induction of ferroptosis in human MDA-MB-231 cells xenografted in nude mouse assessed as reduction in GPX4 level at 10 to 20 mg/kg, ip administered for 30 days by immunohistochemistry analysis; assay type: functional, organism-based; conditions: dose 10-20 mg/kg, time 30.0 day
[23] = tested on: MDA-MB-231; assay: Inhibition of cell adhesion in human MDA-MB-231 cells assessed as rounded form appearance of cells at 0.02 to 0.5 uM incubated for 24 hrs by microscopic analysis; assay type: functional, cell-based; conditions: dose 0.02-0.5 µM
[24] = tested on: 4T1; assay: Inhibition of cell adhesion in mouse 4T1 cells assessed as rounded form appearance of cells at 0.02 to 0.5 uM incubated for 24 hrs by microscopic analysis; assay type: functional, cell-based; conditions: dose 0.02-0.5 µM
[25] = tested on: MDA-MB-231; assay: Antimigratory activity in human MDA-MB-231 cells assessed as inhibition of cell migration at 0.02 to 0.5 uM incubated for 24 hrs by scratch assay; assay type: functional, cell-based; conditions: dose 0.02-0.5 µM
[26] = tested on: 4T1; assay: Antimigratory activity in mouse 4T1 cells assessed as inhibition of cell migration at 0.02 to 0.5 uM incubated for 24 hrs by scratch assay; assay type: functional, cell-based; conditions: dose 0.02-0.5 µM
[27] = tested on: MDA-MB-231; assay: Antiinvasive activity against human MDA-MB-231 cells assessed as reduction in cell invasion measured after 24 hrs by crystal violet staining based transwell invasion assay; assay type: functional; conditions: dose 0.02-0.5 µM
[28] = tested on: 4T1; assay: Antiinvasive activity against mouse 4T1 cells assessed as reduction in cell invasion measured after 24 hrs by crystal violet staining based transwell invasion assay; assay type: functional; conditions: dose 0.02-0.5 µM
[29] = tested on: MDA-MB-231; assay: Antiinvasive activity against human MDA-MB-231 cells assessed as inhibition of cell invasion at 0.5 uM measured after 24 hrs by crystal violet staining based transwell invasion assay relative to control; assay type: functional
[30] = tested on: 4T1; assay: Antimetastatic activity in mouse 4T1 cells implanted in female BALB/c mouse assessed as reduction in number of metastatic nodules in lungs at 10 mg/kg, ip administered once daily for 2 weeks and measured 2 weeks after tumor removal with compound treatment (reference value: 193.7 +/- 6.50); assay type: functional; conditions: time 4 weeks
[31] = tested on: 4T1; assay: Upregulation of DUSP1 protein expression in mouse 4T1 cells incubated for 24 hrs by Western blot analysis; assay type: functional, cell-based; conditions: dose 0.02-2.5 µM
[32] = tested on: 4T1; assay: Downregulation of phosphorylated JNK protein level at Thr183/185 residues in mouse 4T1 cells at 0.02 to 2.5 uM incubated for 24 hrs by Western blot analysis; assay type: functional, cell-based; conditions: dose 0.02-2.5 µM
[33] = tested on: 4T1; assay: Downregulation of phosphorylated AKT protein level at Ser473 residue in mouse 4T1 cells at 0.02 to 2.5 uM incubated for 24 hrs by Western blot analysis; assay type: functional, cell-based; conditions: dose 0.02-2.5 µM
[34] = Acute toxicity in female ICR mouse assessed as effect on behavior at <40 mg/kg, ip measured within 24 hrs; assay type: organism-based; conditions: in vivo
[35] = Acute toxicity in female ICR mouse assessed as spleen pathological abnormalities at 50 mg/kg, ip measured after 2 days; assay type: organism-based; conditions: in vivo, 48 h, time 2 day
[36] = Drug metabolism in nude mouse xenografted with human MDA-MB-231 cells assessed as metabolite formation at 10 to 20 mg/kg, ip administered for 30 days by LC-MS/MS analysis; assay type: ADME, organism-based; conditions: in vivo, 720 h, dose 10-20 mg/kg, time 30 day

CC[C@H]1O[C@@]2(C)[C@H](OC(C)=O)[C@@]1(C)O[C@@H](/C=C/C=C/C=C/c1oc(=O)cc(OC)c1C)[C@@H]2OC(=O)CCC(=O)OC/C=C/COc1no[n+]([O-])c1S(=O)(=O)c1ccccc1
IC50 [1]: 870 nM
IC50 at 72 h [2]: > 50000 nM
selectivity ratio [3]: > 79
IC50 [4]: 870 nM
IC50 [5]: > 50000 nM
Activity [6]: 5.82%
Activity [7]: 0.37%
Activity [8]: 0.44%
Activity [9]: 42.67%
Activity [10]: 8.89%
Activity [11]: 1.42%
Activity [12]: Active
Activity [13]: Active
Activity [14]: Active
Activity [15]: Active
Activity [16]: Dose-Dependent Effect
Activity [17]: Dose-Dependent Effect
Activity [18]: inactive
Activity [19]: inactive
Activity [20]: Non-Toxic
Activity [21]: Active
Activity [22]: Active
inhibition [23]: Active
inhibition [24]: Active
Activity [25]: Active
Activity [26]: Active
Activity [27]: Dose-Dependent Effect
Activity [28]: Dose-Dependent Effect
inhibition at 0.5 µM [29]: 60.7%
Activity [30]: 64.5
Activity [31]: Dose-Dependent Effect
Activity [32]: Active
Activity [33]: Active
Activity [34]: Non-Toxic
Activity [35]: Non-Toxic
Drug metabolism [36]: Metabolite_Detected
